Measured values taken from patent publication US8686184B2, “Neprilysin inhibitors” (Theravance, Inc., priority 2011, dated 2014).

Target: T1, human neprilysin (EC 3.4.24.11; NEP) (Homo sapiens, UniProt P08473)
T1 construct: purchased R&D Systems, Minneapolis, Minn; 1182-ZN
Experiment: In vitro enzyme inhibition assay at human NEP (fluorogenic peptide substrate)
Assay type: biochemical
Settings: recombinant human NEP; 37° C.; substrate Mca-D-Arg-Arg-Leu-Dap-(Dnp)-OH 10 μM; values given as ranges; read-out: pKi values at human NEP (converted)
Description: In vitro Assays for the Quantitation of Inhibitor Potencies at Human and Rat NEP, and Human ACE
The inhibitory activities of compounds at human and rat neprilysin (EC 3.4.24.11; NEP) and human angiotensin converting enzyme (ACE) were determined using in vitro assays as described below.
Recombinant human NEP and recombinant human ACE were obtained commercially (R&D Systems, Minneapolis, Minn., catalog numbers 1182-ZN and 929-ZN, respectively). The fluorogenic peptide substrate Mca-D-Arg-Arg-Leu-Dap-(Dnp)-OH (Medeiros et al. (1997) Braz. J. Med. Biol. Res. 30:1157-62; Anaspec, San Jose, Calif.) and Abz-Phe-Arg-Lys(Dnp)-Pro-OH (Araujo et al. (2000) Biochemistry 39:8519-8525; Bachem, Torrance, Calif.) were used in the NEP and ACE assays respectively.
The assays were performed in 384-well white opaque plates at 37° C. using the fluorogenic peptide substrates at a concentration of 10 μM in Assay Buffer (NEP: 50 mM HEPES, pH 7.5, 100 mM NaCl, 0.01% polyethylene glycol sorbitan monolaurate (Tween-20), 10 μM ZnSO4; ACE: 50 mM HEPES, pH 7.5, 100 mM NaCl, 0.01% Tween-20, 1 μM ZnSO4).
Test compounds were assayed over the range of concentrations from 10 μM to 20 pM. Test compounds were added to the enzymes and incubated for 30 minute at 37° C. prior to initiating the reaction by the addition of substrate. Reactions were terminated after 20 minutes of incubation at 37° C. by the addition of glacial acetic acid to a final concentration of 3.6% (v/v).
Plates were read on a fluorometer with excitation and emission wavelengths set to 320 nm and 405 nm, respectively Inhibition constants were obtained by nonlinear regression of the data using the equation (GraphPad Software, Inc., San Diego, Calif.): v=v0/[1+(I/K′)] where v is the reaction rate, v0 is the uninhibited reaction rate, I is the inhibitor concentration and K′ is the apparent inhibition constant.
Compounds of the invention were tested in this assay and found to have pKi values at human NEP as follows.

T1 sequence (P08473 52-750 limits assumed): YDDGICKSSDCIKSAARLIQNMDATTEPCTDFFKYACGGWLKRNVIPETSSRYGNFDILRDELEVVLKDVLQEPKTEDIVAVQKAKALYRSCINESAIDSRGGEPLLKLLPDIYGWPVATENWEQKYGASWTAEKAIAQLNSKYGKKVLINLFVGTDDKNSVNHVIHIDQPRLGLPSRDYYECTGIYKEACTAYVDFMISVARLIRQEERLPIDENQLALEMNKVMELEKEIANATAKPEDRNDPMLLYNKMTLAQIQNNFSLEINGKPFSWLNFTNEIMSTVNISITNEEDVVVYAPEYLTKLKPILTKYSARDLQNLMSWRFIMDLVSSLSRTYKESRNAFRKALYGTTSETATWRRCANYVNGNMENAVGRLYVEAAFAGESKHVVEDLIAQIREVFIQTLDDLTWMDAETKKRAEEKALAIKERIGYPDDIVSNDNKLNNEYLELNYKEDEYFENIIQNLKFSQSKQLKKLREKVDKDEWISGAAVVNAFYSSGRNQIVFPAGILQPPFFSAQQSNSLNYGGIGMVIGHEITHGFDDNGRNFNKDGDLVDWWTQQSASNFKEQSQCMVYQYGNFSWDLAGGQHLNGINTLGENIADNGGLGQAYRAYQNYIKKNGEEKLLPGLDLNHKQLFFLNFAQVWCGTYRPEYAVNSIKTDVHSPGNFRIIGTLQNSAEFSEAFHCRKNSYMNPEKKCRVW

Row | Compound | Ki [nM]
1 | O=C(N[C@H](Cc1ccccc1)[C@@H](O)C(=O)O)c1cccc(-c2ccc(F)cc2C(=O)O)c1 [Example 10-10, 3′-((1R,2R)-1-Benzyl-2-carboxy-2-hydroxy-ethylcarbamoyl)-4-fluoro-biphenyl-2-carboxylic acid] | 12.6 to 100
2 | CCCC1=NN(c2cccc(C(=O)N[C@H](Cc3ccccc3)[C@@H](O)C(=O)O)c2)C(=O)C1 [Example 10-60, (2R,3R)-2-Hydroxy-3-[3-(5-oxo-3-propyl-4,5-dihydro-pyrazol-1-yl)-benzoylamino]-4-phenyl-butyric acid] | 12.6 to 100
3 | O=C(N[C@H](Cc1ccccc1)[C@@H](O)C(=O)O)c1cccc(-c2cccc(-c3nnn[nH]3)c2)c1 [Example 10-31, (2R,3R)-2-Hydroxy-4-phenyl-3-{[3′-(1H-tetrazol-5-yl)-biphenyl-3-carbonyl]-amino}-butyric acid] | 12.6 to 100
4 | COc1ccc(C(=O)N[C@H](Cc2ccccc2Cl)[C@@H](O)C(=O)O)cc1-c1ccccc1C(=O)O [Example 6-7, 5′-[(1R,2R)-2-Carboxy-1-(2-chlorobenzyl)-2-hydroxy-ethylcarbamoyl]-2′-methoxy-biphenyl-2-carboxylic acid] | 12.6 to 100
5 | CC(C)c1ccc(C(=O)N[C@H](Cc2ccccc2)[C@@H](O)C(=O)O)cc1 [Example 10-34, (2R,3R)-2-Hydroxy-3-(4-isopropyl-benzoylamino)-4-phenyl-butyric acid] | 12.6 to 100
6 | CCc1ccc(C(=O)N[C@H](Cc2ccccc2)[C@@H](O)C(=O)O)cc1NC(=O)c1ccncc1 [Example 10-71, (2R,3R)-3-{4-Ethyl-3-[(pyridine-4-carbonyl)-amino]-benzoylamino}-2-hydroxy-4-phenyl-butyric acid] | 12.6 to 100
7 | CCc1ccc(C(=O)N[C@H](Cc2ccccc2)[C@@H](O)C(=O)O)cc1NC(=O)c1ccccn1 [Example 10-70, (2R,3R)-3-{4-Ethyl-3-[(pyridine-2-carbonyl)-amino]-benzoylamino}-2-hydroxy-4-phenyl-butyric acid] | 12.6 to 100
8 | O=C(N[C@H](Cc1ccccc1)[C@@H](O)C(=O)O)c1ccc(-n2ccc(C(F)(F)F)n2)cc1 [Example 10-3, (2R,3R)-2-Hydroxy-4-phenyl-3-[4-(3-trifluoromethyl-pyrazol-1-yl)-benzoylamino]-butyric acid] | 12.6 to 100
9 | CC(C)c1ccc(C(=O)N[C@H](Cc2ccccc2)[C@@H](O)C(=O)O)cc1Br [Example 10-55, (2R,3R)-3-(3-Bromo-4-isopropyl-benzoylamino)-2-hydroxy-4-phenyl-butyric acid] | 12.6 to 100
10 | O=C(N[C@H](Cc1ccccc1)[C@@H](O)C(=O)O)c1ccc(Cl)c(-c2ccccc2C(=O)O)c1 [Example 10-22, 5′-((1R,2R)-1-Benzyl-2-carboxy-2-hydroxy-ethylcarbamoyl)-2′-chloro-biphenyl-2-carboxylic acid] | 1.26 to 10
11 | O=C(N[C@H](Cc1ccccc1Cl)[C@@H](O)C(=O)O)c1ccc(Cl)c(-c2ccccc2C(=O)O)c1 [Example 6-3, 5′-[(1R,2R)-2-Carboxy-1-(2-chlorobenzyl)-2-hydroxy-ethylcarbamoyl]-2′-chloro-biphenyl-2-carboxylic acid] | ≤ 1
12 | O=C(N[C@H](Cc1ccccc1)[C@@H](O)C(=O)O)c1ccc(Cn2ccnc2)cc1 [Example 10-46, (2R,3R)-2-Hydroxy-3-(4-imidazol-1-ylmethyl-benzoylamino)-4-phenyl-butyric acid] | 12.6 to 100
13 | Cc1cc(C(=O)N[C@H](Cc2ccccc2)[C@@H](O)C(=O)O)cc(C)c1F [Example 10-82, (2R,3R)-3-(4-Fluoro-3,5-dimethyl-benzoylamino)-2-hydroxy-4-phenyl-butyric acid] | 12.6 to 100
14 | O=C(N[C@H](Cc1ccccc1)[C@@H](O)C(=O)O)c1cc(Cl)cc(-c2ccccc2C(=O)O)c1 [Example 10-26, 3′-((1R,2R)-1-Benzyl-2-carboxy-2-hydroxy-ethylcarbamoyl)-5′-chloro-biphenyl-2-carboxylic acid] | 1.26 to 10
15 | Cc1ccc(C(=O)N[C@H](Cc2ccccc2)[C@@H](O)C(=O)O)cc1-c1ccccc1C(=O)O [Example 10-15, 5′-((1R,2R)-1-Benzyl-2-carboxy-2-hydroxy-ethylcarbamoyl)-2′-methyl-biphenyl-2-carboxylic acid] | 1.26 to 10
16 | O=C(N[C@H](Cc1ccccc1)[C@@H](O)C(=O)O)c1ccc(-n2cccc2)cc1 [Example 10-43, (2R,3R)-2-Hydroxy-4-phenyl-3-(4-pyrrol-1-yl-benzoylamino)-butyric acid] | 12.6 to 100
17 | O=C(O)Cc1ccccc1-c1ccc(C(=O)N[C@H](Cc2ccccc2)[C@@H](O)C(=O)O)cc1 [Example 10-48, (2R,3R)-3-[(2′-Carboxymethyl-biphenyl-4-carbonyl)-amino]-2-hydroxy-4-phenyl-butyric acid] | 1.26 to 10
18 | CCc1ccc(C(=O)N[C@H](Cc2ccccc2Cl)[C@@H](O)C(=O)O)cc1-n1c(=O)[nH]c2sc(C)cc2c1=O [Example 4, (2R,3R)-4-(2-Chlorophenyl)-3-[4-ethyl-3-(6-methyl-2,4-dioxo-1,4-dihydro-2H-thieno[2,3-d]pyrimidin-3-yl)-benzoylamino]-2-hydroxy-butyric Acid] | ≤ 1
19 | Cc1ccc(C(=O)N[C@H](Cc2ccccc2)[C@@H](O)C(=O)O)cc1-c1cccc(C(=O)O)c1 [Example 10-62, 5′-((1R,2R)-1-Benzyl-2-carboxy-2-hydroxy-ethylcarbamoyl)-2′-methyl-biphenyl-3-carboxylic acid] | 12.6 to 100
20 | CCCCC(=O)Nc1cc(C(=O)N[C@H](Cc2ccccc2)[C@@H](O)C(=O)O)ccc1CC [Example 10-66, (2R,3R)-3-(4-Ethyl-3-pentanoylamino-benzoylamino)-2-hydroxy-4-phenyl-butyric acid] | 12.6 to 100
21 | CCc1ccc(C(=O)N[C@H](Cc2ccccc2)[C@@H](O)C(=O)O)cc1NC(=O)c1ccccc1 [Example 10-68, (2R,3R)-3-(3-Benzoylamino-4-ethyl-benzoylamino)-2-hydroxy-4-phenyl-butyric acid] | 12.6 to 100

Further lines, results first:

Row | Ki [nM] | Compound
22 | 12.6 to 100 | O=C(O)Cc1ccccc1-c1cccc(C(=O)N[C@@H](CC(=O)O)Cc2ccccc2Cl)c1 [Example 13-1, (R)-3-[(2′-Carboxymethyl-biphenyl-3-carbonyl)-amino]-4-(2-chloro-phenyl)-butyric acid]
23 | 12.6 to 100 | CC1=NN(c2cccc(C(=O)N[C@@H](CC(=O)O)Cc3ccccc3Cl)c2)C(=O)C1 [Example 13-8, (R)-4-(2-Chlorophenyl)-3-[3-(3-methyl-5-oxo-4,5-dihydro-pyrazol-1-yl)-benzoylamino]-butyric acid]
24 | 1.26 to 10 | O=C(O)C[C@@H](Cc1ccccc1Cl)NC(=O)CCCc1ccccc1C(=O)O [Example 11, 2-{3-[(R)-1-Carboxymethyl-2-(2-chlorophenyl)-ethylcarbamoyl]-propyl}-benzoic Acid]
25 | 12.6 to 100 | Cc1nnnn1Cc1ccc(C(=O)N[C@H](Cc2ccccc2)[C@@H](O)C(=O)O)cc1 [Example 10-45, (2R,3R)-2-Hydroxy-3-[4-(5-methyl-tetrazol-1-ylmethyl)-benzoylamino]-4-phenyl-butyric acid]
26 | 1.26 to 10 | O=C(N[C@H](Cc1ccccc1Cl)[C@@H](O)C(=O)O)c1cc(F)cc(-c2ccccc2C(=O)O)c1 [Example 6-1, 5′-[(1R,2R)-2-Carboxy-1-(2-chlorobenzyl)-2-hydroxy-ethylcarbamoyl]-3′-fluoro-biphenyl-2-carboxylic acid]
27 | 12.6 to 100 | O=C(N[C@H](Cc1ccccc1)[C@@H](O)C(=O)O)c1ccc(-n2cccn2)cc1 [Example 10-2, (2R,3R)-2-Hydroxy-4-phenyl-3-(4-pyrazol-1-yl-benzoylamino)-butyric acid]
28 | ≤ 1 | Cc1ccc(C(=O)N[C@H](Cc2ccccc2Cl)[C@@H](O)C(=O)O)cc1-c1ccccc1C(=O)O [Example 6-6, 5′-[(1R,2R)-2-Carboxy-1-(2-chlorobenzyl)-2-hydroxy-ethylcarbamoyl]-2′-methyl-biphenyl-2-carboxylic acid]
29 | 12.6 to 100 | Cc1cc(C(=O)N[C@H](Cc2ccccc2)[C@@H](O)C(=O)O)ccc1-n1cccc1 [Example 10-58, (2R,3R)-2-Hydroxy-3-(3-methyl-4-pyrrol-1-yl-benzoylamino)-4-phenyl-butyric acid]
30 | 12.6 to 100 | Cc1cc(C(=O)O)c(NC(=O)Nc2ccc(C(=O)N[C@H](Cc3ccccc3)[C@@H](O)C(=O)O)cc2)s1 [Example 10-53]
31 | 12.6 to 100 | O=C(N[C@H](Cc1ccccc1)[C@@H](O)C(=O)O)c1cc(O)cc(-c2ccccc2C(=O)O)c1 [Example 10-24, 3′-((1R,2R)-1-Benzyl-2-carboxy-2-hydroxy-ethylcarbamoyl)-5′-hydroxy-biphenyl-2-carboxylic acid]
